According to ChEMBL document CHEMBL1275492, “In vitro activity of ceftobiprole against pathogens from two phase 3 clinical trials of complicated skin and skin structure infections” (2008):

What was measured:
Assay type in all cases: functional
Pseudomonas aeruginosa = test: Antibacterial activity against Pseudomonas aeruginosa obtained from complicated skin and skin structure infections by agar dilution method
Acinetobacter baumannii = test: Antibacterial activity against Acinetobacter baumannii obtained from complicated skin and skin structure infections by agar dilution method
Pseudomonas fluorescens = test: Antibacterial activity against Pseudomonas fluorescens obtained from complicated skin and skin structure infections by agar dilution method
[1] = system: Stenotrophomonas maltophilia; test: Antibacterial activity against Stenotrophomonas maltophilia obtained from complicated skin and skin structure infections by agar dilution method
Klebsiella aerogenes = test: Antibacterial activity against Enterobacter aerogenes obtained from complicated skin and skin structure infections by agar dilution method
Klebsiella oxytoca = test: Antibacterial activity against Klebsiella oxytoca obtained from complicated skin and skin structure infections by agar dilution method
Staphylococcus aureus [2] = test: Antibacterial activity against Staphylococcus aureus obtained from complicated skin and skin structure infections by agar dilution method
Staphylococcus aureus [3] = test: Antibacterial activity against methicillin resistant Staphylococcus aureus obtained from complicated skin and skin structure infections by agar dilution method
Staphylococcus aureus [4] = test: Antibacterial activity against methicillin susceptible Staphylococcus aureus obtained from complicated skin and skin structure infections by agar dilution method
[5] = system: Staphylococcus epidermidis; test: Antibacterial activity against coagulase-negative Staphylococcus epidermidis obtained from complicated skin and skin structure infections by agar dilution method
[6] = system: Staphylococcus haemolyticus; test: Antibacterial activity against coagulase-negative Staphylococcus haemolyticus obtained from complicated skin and skin structure infections by agar dilution method
[7] = system: Staphylococcus lugdunensis; test: Antibacterial activity against coagulase-negative Staphylococcus lugdunensis obtained from complicated skin and skin structure infections by agar dilution method
Staphylococcus hominis = test: Antibacterial activity against coagulase-negative Staphylococcus hominis obtained from complicated skin and skin structure infections by agar dilution method
Staphylococcus capitis = test: Antibacterial activity against coagulase-negative Staphylococcus capitis obtained from complicated skin and skin structure infections by agar dilution method
[8] = system: Staphylococcus saprophyticus; test: Antibacterial activity against coagulase-negative Staphylococcus saprophyticus obtained from complicated skin and skin structure infections by agar dilution method
Staphylococcus cohnii = test: Antibacterial activity against coagulase-negative Staphylococcus cohnii obtained from complicated skin and skin structure infections by agar dilution method
Mammaliicoccus sciuri = test: Antibacterial activity against coagulase-negative Staphylococcus sciuri obtained from complicated skin and skin structure infections by agar dilution method
Staphylococcus warneri = test: Antibacterial activity against coagulase-negative Staphylococcus warneri obtained from complicated skin and skin structure infections by agar dilution method
[9] = system: Staphylococcus lugdunensis; test: Antibacterial activity against methicillin-resistant, oxacillin-susceptible, coagulase-negative, mecA-positive Staphylococcus lugdunensis obtained from complicated skin and skin structure infections by agar dilution method
Staphylococcus = test: Antibacterial activity against methicillin-susceptible, coagulase-negative Staphylococcus obtained from complicated skin and skin structure infections by agar dilution method
Enterococcus faecalis = test: Antibacterial activity against Enterococcus faecalis obtained from complicated skin and skin structure infections by agar dilution method
Enterococcus faecium = test: Antibacterial activity against Enterococcus faecium obtained from complicated skin and skin structure infections by agar dilution method
Streptococcus agalactiae = test: Antibacterial activity against Streptococcus agalactiae obtained from complicated skin and skin structure infections by agar dilution method
Streptococcus pyogenes = test: Antibacterial activity against Streptococcus pyogenes obtained from complicated skin and skin structure infections by agar dilution method
[10] = Antibacterial activity against Streptococcus sp. 'group C' obtained from complicated skin and skin structure infections by agar dilution method
[11] = Antibacterial activity against Streptococcus sp. 'group G' obtained from complicated skin and skin structure infections by agar dilution method
[12] = system: Streptococcus constellatus; test: Antibacterial activity against Streptococcus constellatus obtained from complicated skin and skin structure infections by agar dilution method
Streptococcus mitis = test: Antibacterial activity against Streptococcus mitis obtained from complicated skin and skin structure infections by agar dilution method
[13] = system: Staphylococcus intermedius; test: Antibacterial activity against Staphylococcus intermedius obtained from complicated skin and skin structure infections by agar dilution method
Aerococcus viridans = test: Antibacterial activity against Aerococcus viridans obtained from complicated skin and skin structure infections by agar dilution method
Bacillus = test: Antibacterial activity against Bacillus spp. obtained from complicated skin and skin structure infections by agar dilution method
Gemella morbillorum = test: Antibacterial activity against Gemella morbillorum obtained from complicated skin and skin structure infections […]
Gemella = test: Antibacterial activity against Gemella spp. obtained from complicated skin and skin structure infections by agar dilution method
Lactococcus lactis = test: Antibacterial activity against Lactococcus lactis obtained from complicated skin and skin structure infections by agar dilution method
Micrococcus = test: Antibacterial activity against Micrococcus spp. obtained from complicated skin and skin structure infections by agar dilution method
Citrobacter braakii = test: Antibacterial activity against Citrobacter braakii obtained from complicated skin and skin structure infections by agar dilution method
Citrobacter freundii = test: Antibacterial activity against Citrobacter freundii obtained from complicated skin and skin structure infections by agar dilution method
Enterobacter amnigenus = test: Antibacterial activity against Enterobacter amnigenus obtained from complicated skin and skin structure infections by agar dilution method; conditions: Lelliottia amnigena
Enterobacter cloacae = test: Antibacterial activity against Enterobacter cloacae obtained from complicated skin and skin structure infections by agar dilution method
Escherichia coli = test: Antibacterial activity against Escherichia coli obtained from complicated skin and skin structure infections by agar dilution method
Klebsiella pneumoniae = test: Antibacterial activity against Klebsiella pneumoniae obtained from complicated skin and skin structure infections by agar dilution method
Morganella morganii = test: Antibacterial activity against Morganella morganii obtained from complicated skin and skin structure infections by agar dilution method
Proteus mirabilis = test: Antibacterial activity against Proteus mirabilis obtained from complicated skin and skin structure infections by agar dilution method
Proteus penneri = test: Antibacterial activity against Proteus penneri obtained from complicated skin and skin structure infections by agar dilution method
Proteus vulgaris = test: Antibacterial activity against Proteus vulgaris obtained from complicated skin and skin structure infections by agar dilution method
Providencia stuartii = test: Antibacterial activity against Providencia stuartii obtained from complicated skin and skin structure infections by agar dilution method
Salmonella = test: Antibacterial activity against Salmonella spp. obtained from complicated skin and skin structure infections by agar dilution method
Serratia marcescens = test: Antibacterial activity against Serratia marcescens obtained from complicated skin and skin structure infections by agar dilution method
Bacteroides fragilis = test: Antibacterial activity against Bacteroides fragilis obtained from complicated skin and skin structure infections by agar dilution method
Prevotella = test: Antibacterial activity against Prevotella spp. obtained from complicated skin and skin structure infections by agar dilution method
Veillonella = test: Antibacterial activity against Veillonella spp. obtained from complicated skin and skin structure infections by agar dilution method

Question: What does the source list for `C[C@H]1COc2c(N3CCN(C)CC3)c(F)cc3c(=O)c(C(=O)O)cn1c23.C[C@H]1COc2c(N3CCN(C)CC3)c(F)cc3c(=O)c(C(=O)O)cn1c23.O` [LEVOFLOXACIN]?
Answer: MIC50 (Pseudomonas aeruginosa): 4 mg/L; MIC90 (Pseudomonas aeruginosa): 64 mg/L; MIC50 (Acinetobacter baumannii): 4 mg/L; MIC90 (Acinetobacter baumannii): 8 mg/L; MIC50 (Pseudomonas fluorescens): 4 mg/L; MIC90 (Pseudomonas fluorescens): 8 mg/L; MIC50 [1]: 4 mg/L; MIC90 [1]: 8 mg/L; MIC50 (Klebsiella aerogenes): ≤ 0.06 mg/L; MIC90 (Klebsiella aerogenes): 8 mg/L; MIC50 (Klebsiella oxytoca): ≤ 0.06 mg/L; MIC90 (Klebsiella oxytoca): 8 mg/L; MIC50 (Staphylococcus aureus [2]): 0.12 mg/L; MIC90 (Staphylococcus aureus [2]): 4 mg/L; MIC50 (Staphylococcus aureus [3]): 4 mg/L; MIC90 (Staphylococcus aureus [3]): 8 mg/L; MIC50 (Staphylococcus aureus [4]): 0.12 mg/L; MIC90 (Staphylococcus aureus [4]): 0.5 mg/L; MIC50 [5]: 0.12 mg/L; MIC90 [5]: 8 mg/L; MIC50 [6]: 0.12 mg/L; MIC90 [6]: 8 mg/L; MIC50 [7]: 0.12 mg/L; MIC90 [7]: 8 mg/L; MIC50 (Staphylococcus hominis): 0.12 mg/L; MIC90 (Staphylococcus hominis): 8 mg/L; MIC50 (Staphylococcus capitis): 0.12 mg/L; MIC90 (Staphylococcus capitis): 8 mg/L; MIC50 [8]: 0.12 mg/L; MIC90 [8]: 8 mg/L; MIC50 (Staphylococcus cohnii): 0.12 mg/L; MIC90 (Staphylococcus cohnii): 8 mg/L; MIC50 (Mammaliicoccus sciuri): 0.12 mg/L; MIC90 (Mammaliicoccus sciuri): 8 mg/L; MIC50 (Staphylococcus warneri): 0.12 mg/L; MIC90 (Staphylococcus warneri): 8 mg/L; MIC50 [9]: 0.25 mg/L; MIC90 [9]: > 8 mg/L; MIC50 (Staphylococcus): 0.12 mg/L; MIC90 (Staphylococcus): 0.25 mg/L; MIC50 (Enterococcus faecalis): 1 mg/L; MIC90 (Enterococcus faecalis): 2 mg/L; MIC50 (Enterococcus faecium): 4 mg/L; MIC (Streptococcus agalactiae): 0.5 mg/L; MIC50 (Streptococcus agalactiae): 0.5 mg/L; MIC90 (Streptococcus agalactiae): 1 mg/L; MIC50 (Streptococcus pyogenes): 0.5 mg/L; MIC90 (Streptococcus pyogenes): 0.5 mg/L; MIC50 [10]: 0.5 mg/L; MIC90 [10]: 0.5 mg/L; MIC50 [11]: 0.5 mg/L; MIC90 [11]: 0.5 mg/L; MIC [12]: 0.25 mg/L; MIC50 [12]: 0.25 mg/L; MIC90 [12]: 1 mg/L; MIC (Streptococcus mitis): ≤ 0.03 mg/L; MIC50 (Streptococcus mitis): ≤ 0.03 mg/L; MIC90 (Streptococcus mitis): 0.12 mg/L; MIC [13]: ≤ 0.03 mg/L; MIC50 [13]: ≤ 0.03 mg/L; MIC90 [13]: 0.12 mg/L; MIC50 (Aerococcus viridans): 0.5 mg/L; MIC90 (Aerococcus viridans): 4 mg/L; MIC50 (Bacillus): 0.5 mg/L; MIC90 (Bacillus): 4 mg/L; MIC50 (Gemella morbillorum): 0.5 mg/L; MIC90 (Gemella morbillorum): 4 mg/L; MIC50 (Gemella): 0.5 mg/L; MIC90 (Gemella): 4 mg/L; MIC50 (Lactococcus lactis): 0.5 mg/L; MIC90 (Lactococcus lactis): 4 mg/L; MIC50 (Micrococcus): 0.5 mg/L; MIC90 (Micrococcus): 4 mg/L; MIC50 (Citrobacter braakii): ≤ 0.06 mg/L; MIC90 (Citrobacter braakii): 8 mg/L; MIC50 (Citrobacter freundii): ≤ 0.06 mg/L; MIC90 (Citrobacter freundii): 8 mg/L; MIC50 (Enterobacter amnigenus): ≤ 0.06 mg/L; MIC90 (Enterobacter amnigenus): 8 mg/L; MIC50 (Enterobacter cloacae): 0.06 mg/L; MIC90 (Enterobacter cloacae): 4 mg/L; MIC50 (Escherichia coli): 0.03 mg/L; MIC90 (Escherichia coli): 1 mg/L; MIC50 (Klebsiella pneumoniae): 0.06 mg/L; MIC90 (Klebsiella pneumoniae): 4 mg/L; MIC50 (Morganella morganii): 1 mg/L; MIC90 (Morganella morganii): 64 mg/L; MIC50 (Proteus mirabilis): ≤ 0.06 mg/L; MIC90 (Proteus mirabilis): > 8 mg/L; MIC50 (Proteus penneri): ≤ 0.06 mg/L; MIC90 (Proteus penneri): 8 mg/L; MIC50 (Proteus vulgaris): ≤ 0.06 mg/L; MIC90 (Proteus vulgaris): 8 mg/L; MIC50 (Providencia stuartii): ≤ 0.06 mg/L; MIC90 (Providencia stuartii): 8 mg/L; MIC50 (Salmonella): ≤ 0.06 mg/L; MIC90 (Salmonella): 8 mg/L; MIC50 (Serratia marcescens): ≤ 0.06 mg/L; MIC90 (Serratia marcescens): 8 mg/L

Question: Which MIC (Bacteroides fragilis) does the source give for `CO[C@@]1(NC(=O)Cc2cccs2)C(=O)N2C(C(=O)O)=C(COC(N)=O)CS[C@@H]21` [CEFOXITIN] here?
Answer: ≤ 1 mg/L

Question: What about the MIC (Prevotella) of the same compound?
Answer: ≤ 1 mg/L

Question: And the MIC (Veillonella)?
Answer: ≤ 1 mg/L
